Experimental findings from PubChem BioAssay (NCI) are described below.

“And” between values parts separate entries of the source, which are not always exact repeats. Identical values can stand only once.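 The compound was tested at five concentrations on cells cultured in 96-well plates, with a 48-hour exposure period. At the GI50, growth is halved. The concentration for full growth arrest is given as TGI.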

One experiment deals with SK-MEL-28 melanoma. Briefly: DTP human tumour cell line panel, 48 h.
Consider `NC(=O)OCCn1cc(-c2nc(-c3c[nH]c4ncccc34)cs2)c2ccccc21`, for which the GI50 is 2.05 µM and the total growth inhibition concentration (TGI) came to 14.8 µM.

Consider `NCCSc1nc(-c2ccccc2)c(-c2ccccc2)o1`, for which the TGI was greater than 100 µM.

Turning to `Cc1cc(C)c(NC(=O)c2sc3nc4c(cc3c2N)CN(Cc2ccccc2)CC4)c(C)c1`, the GI50 is 6.97 µM and the concentration for total growth inhibition (TGI) came to 40.4 µM.

In the next experiment the test system is OVCAR-8 ovarian. The experiment can be described thus: DTP human tumour cell line panel, 48 h.
In the case of `CCn1c(=O)c2c(=O)c3c4c(oc3oc2c2ccccc21)C(=O)c1ccccc1C4=O`, the GI50 is 3.3 µM and the total growth inhibition concentration (TGI) was greater than 100 µM.

Consider `C1=C\COCc2cc(ccc2OCCN2CCCC2)Nc2nccc(n2)-c2cccc(c2)COC/1`, for which the GI50 is 3.22 µM and the TGI worked out at 7.32 µM.

On to `O=C1c2ccccc2-c2c1c1ccccc1c(=O)n2CCCCl`, for which the GI50 was 9.28 µM and the TGI worked out at 44.8 µM.

Compound `COc1cc2c3c(n(CCCOC(=O)C(F)(F)F)c(=O)c2cc1OC)-c1cc2c(cc1C3=O)OCO2` gave a TGI of 0.664 µM.

With `COc1cc2c(c(OC)c1OC)-c1ncc3cc4c(cc3c1C2)OCO4`, the GI50 was 13.9 µM and the TGI amounted to 36.9 µM.

On to `CC1=C(C(=O)Nc2ccc(Cl)c(Cl)c2)C(c2cccc(Oc3ccccc3)c2)NC(=O)N1` (stereo not given), for which the GI50 is 7.67 µM and the TGI came out at 22 µM.

As for `CCOc1ccncc1[N+](=O)[O-]`, the concentration for total growth inhibition (TGI) is greater than 100 µM.

Turning to `O=C(Nc1ccc(F)cc1)c1cc(S(=O)(=O)Nc2nc3ccccc3o2)c(SCc2ccccc2)cc1Cl`, the GI50 was 17.7 µM and the TGI is 36 µM.

For the compound `O=C1NC(=O)C(c2cccc([N+](=O)[O-])c2)=C1Nc1cc(Cl)c(O)c(Cl)c1`, the GI50 is greater than 25 µM and the total growth inhibition concentration (TGI) was greater than 25 µM.

As for `COC(=O)[C@@H](C)C[C@H](Cc1ccccc1)NC(=O)c1csc([C@@H](C[C@H](C(C)C)N(C)C(=O)[C@@H](NC(=O)[C@H]2CCCCN2C)C2CCCCC2)OC(C)=O)n1`, the GI50 was 0.00354 µM and 0.0025 µM; the TGI is greater than 25 µM.

As for `NCCSc1nc(-c2ccccc2)c(-c2ccccc2)o1`, the TGI was greater than 100 µM.

On to `Cc1cc(C)c(NC(=O)c2sc3nc4c(cc3c2N)CN(Cc2ccccc2)CC4)c(C)c1`, for which the GI50 was 4.72 µM and the TGI was greater than 100 µM.

The subject of another experiment is 786-0 renal. The experiment can be described thus: DTP human tumour cell line panel, 48 h.
Take `CCn1c(=O)c2c(=O)c3c4c(oc3oc2c2ccccc21)C(=O)c1ccccc1C4=O`: the GI50 was greater than 22.7 µM and the TGI was greater than 100 µM.

As to `C1=C\COCc2cc(ccc2OCCN2CCCC2)Nc2nccc(n2)-c2cccc(c2)COC/1`, the GI50 is 3.51 µM and the TGI was determined as 5.18 µM.

As for `O=C1c2ccccc2-c2c1c1ccccc1c(=O)n2CCCCl`, the GI50 is 4.86 µM and the concentration for total growth inhibition (TGI) was found to be 18.2 µM.

In the case of `COc1cc2c3c(n(CCCOC(=O)C(F)(F)F)c(=O)c2cc1OC)-c1cc2c(cc1C3=O)OCO2`, the concentration for 50% growth inhibition (GI50) is less than 0.01 µM and the TGI is less than 0.0241 µM.

In the case of `COc1cc2c(c(OC)c1OC)-c1ncc3cc4c(cc3c1C2)OCO4`, the GI50 was 30.2 µM and the TGI is greater than 100 µM.

For `CC1=C(C(=O)Nc2ccc(Cl)c(Cl)c2)C(c2cccc(Oc3ccccc3)c2)NC(=O)N1` (stereo not given), the GI50 is 10.2 µM and the TGI was determined as 20.8 µM.

Consider `CCOc1ccncc1[N+](=O)[O-]`, for which the concentration for total growth inhibition (TGI) was greater than 100 µM.

For `O=C(Nc1ccc(F)cc1)c1cc(S(=O)(=O)Nc2nc3ccccc3o2)c(SCc2ccccc2)cc1Cl`, the GI50 was 18.5 µM and the TGI was found to be 35.3 µM.

Consider `O=C1NC(=O)C(c2cccc([N+](=O)[O-])c2)=C1Nc1cc(Cl)c(O)c(Cl)c1`, for which the GI50 was greater than 23.3 µM and the TGI was greater than 25 µM.

In the case of `COC(=O)[C@@H](C)C[C@H](Cc1ccccc1)NC(=O)c1csc([C@@H](C[C@H](C(C)C)N(C)C(=O)[C@@H](NC(=O)[C@H]2CCCCN2C)C2CCCCC2)OC(C)=O)n1`, the GI50 was 0.00175 µM and 0.0025 µM; the TGI worked out at 2.74 µM.

With `NC(=O)OCCn1cc(-c2nc(-c3c[nH]c4ncccc34)cs2)c2ccccc21`, the GI50 is 2.38 µM and the total growth inhibition concentration (TGI) was 7.23 µM.

For the compound `NCCSc1nc(-c2ccccc2)c(-c2ccccc2)o1`, the TGI is greater than 100 µM.

With `Cc1cc(C)c(NC(=O)c2sc3nc4c(cc3c2N)CN(Cc2ccccc2)CC4)c(C)c1`, the GI50 was 3.48 µM and the concentration for total growth inhibition (TGI) was greater than 100 µM.

In a further experiment the test system is NCI-H23 lung. Briefly: DTP human tumour cell line panel, 48 h.
On to `CCn1c(=O)c2c(=O)c3c4c(oc3oc2c2ccccc21)C(=O)c1ccccc1C4=O`, for which the GI50 is greater than 48.9 µM and the TGI is greater than 100 µM.

For `C1=C\COCc2cc(ccc2OCCN2CCCC2)Nc2nccc(n2)-c2cccc(c2)COC/1`, the GI50 was 2.09 µM and the total growth inhibition concentration (TGI) is 5.79 µM.

Take `O=C1c2ccccc2-c2c1c1ccccc1c(=O)n2CCCCl`: the GI50 was 15.7 µM and the TGI came to 50.1 µM.

Regarding `COc1cc2c3c(n(CCCOC(=O)C(F)(F)F)c(=O)c2cc1OC)-c1cc2c(cc1C3=O)OCO2`, the GI50 is less than 0.0158 µM and the TGI was less than 0.045 µM.

In turn, `CCOc1ccncc1[N+](=O)[O-]` displayed a concentration for total growth inhibition (TGI) greater than 100 µM.

As to `O=C(Nc1ccc(F)cc1)c1cc(S(=O)(=O)Nc2nc3ccccc3o2)c(SCc2ccccc2)cc1Cl`, the GI50 is 19.5 µM and the concentration for total growth inhibition (TGI) was determined as 36.9 µM.

Regarding `COC(=O)[C@@H](C)C[C@H](Cc1ccccc1)NC(=O)c1csc([C@@H](C[C@H](C(C)C)N(C)C(=O)[C@@H](NC(=O)[C@H]2CCCCN2C)C2CCCCC2)OC(C)=O)n1`, the GI50 is 0.00079 µM and 0.0025 µM; the TGI was greater than 25 µM.

On to `NC(=O)OCCn1cc(-c2nc(-c3c[nH]c4ncccc34)cs2)c2ccccc21`, for which the GI50 was 2.02 µM and the concentration for total growth inhibition (TGI) was greater than 100 µM.

Regarding `NCCSc1nc(-c2ccccc2)c(-c2ccccc2)o1`, the TGI was greater than 100 µM.

In the case of `Cc1cc(C)c(NC(=O)c2sc3nc4c(cc3c2N)CN(Cc2ccccc2)CC4)c(C)c1`, the GI50 is 4.51 µM and the TGI is greater than 100 µM.

The subject of another experiment is HOP-62 NSCLC. The experiment can be described thus: DTP human tumour cell line panel, 48 h.
As for `CCn1c(=O)c2c(=O)c3c4c(oc3oc2c2ccccc21)C(=O)c1ccccc1C4=O`, the GI50 was greater than 21.6 µM and the total growth inhibition concentration (TGI) is greater than 100 µM.

In the case of `C1=C\COCc2cc(ccc2OCCN2CCCC2)Nc2nccc(n2)-c2cccc(c2)COC/1`, the GI50 was 2.47 µM and the TGI worked out at 6.56 µM.

As for `O=C1c2ccccc2-c2c1c1ccccc1c(=O)n2CCCCl`, the GI50 was 1.77 µM and the total growth inhibition concentration (TGI) stood at 6.57 µM.

On to `COc1cc2c3c(n(CCCOC(=O)C(F)(F)F)c(=O)c2cc1OC)-c1cc2c(cc1C3=O)OCO2`, for which the GI50 was less than 0.01 µM and the TGI was less than 0.0329 µM.

For `COc1cc2c(c(OC)c1OC)-c1ncc3cc4c(cc3c1C2)OCO4`, the GI50 was 21.7 µM and the TGI came out at 46.6 µM.

In the case of `CC1=C(C(=O)Nc2ccc(Cl)c(Cl)c2)C(c2cccc(Oc3ccccc3)c2)NC(=O)N1` (stereo not given), the GI50 was 14.6 µM and the TGI turned out to be 26.5 µM.

`CCOc1ccncc1[N+](=O)[O-]` returned a TGI greater than 100 µM.

Regarding `O=C(Nc1ccc(F)cc1)c1cc(S(=O)(=O)Nc2nc3ccccc3o2)c(SCc2ccccc2)cc1Cl`, the GI50 was 17.7 µM and the concentration for total growth inhibition (TGI) came out at 33.5 µM.

`O=C1NC(=O)C(c2cccc([N+](=O)[O-])c2)=C1Nc1cc(Cl)c(O)c(Cl)c1`: the GI50 is greater than 25 µM and the TGI was greater than 25 µM.

As to `COC(=O)[C@@H](C)C[C@H](Cc1ccccc1)NC(=O)c1csc([C@@H](C[C@H](C(C)C)N(C)C(=O)[C@@H](NC(=O)[C@H]2CCCCN2C)C2CCCCC2)OC(C)=O)n1`, the GI50 is 0.00213 µM and 0.0025 µM; the TGI is greater than 25 µM.

As to `NC(=O)OCCn1cc(-c2nc(-c3c[nH]c4ncccc34)cs2)c2ccccc21`, the GI50 was 1.07 µM and the total growth inhibition concentration (TGI) turned out to be 7.87 µM.

`NCCSc1nc(-c2ccccc2)c(-c2ccccc2)o1` returned a concentration for total growth inhibition (TGI) greater than 100 µM.

As for `Cc1cc(C)c(NC(=O)c2sc3nc4c(cc3c2N)CN(Cc2ccccc2)CC4)c(C)c1`, the GI50 is 7.73 µM and the total growth inhibition concentration (TGI) was greater than 100 µM.

The next experiment relates to HL-60(TB) leukemia. The experiment can be described thus: DTP human tumour cell line panel, 48 h.
`C1=C\COCc2cc(ccc2OCCN2CCCC2)Nc2nccc(n2)-c2cccc(c2)COC/1`: the GI50 is 1.28 µM and the TGI was 4.79 µM.

Take `COc1cc2c(c(OC)c1OC)-c1ncc3cc4c(cc3c1C2)OCO4`: the GI50 is 26.3 µM and the TGI is greater than 100 µM.

For `CC1=C(C(=O)Nc2ccc(Cl)c(Cl)c2)C(c2cccc(Oc3ccccc3)c2)NC(=O)N1` (stereo not given), the GI50 is 22.8 µM and the concentration for total growth inhibition (TGI) is greater than 50 µM.

`CCOc1ccncc1[N+](=O)[O-]` yielded a total growth inhibition concentration (TGI) greater than 100 µM.

Regarding `O=C1NC(=O)C(c2cccc([N+](=O)[O-])c2)=C1Nc1cc(Cl)c(O)c(Cl)c1`, the GI50 is greater than 25 µM and the TGI is greater than 25 µM.

On to `COC(=O)[C@@H](C)C[C@H](Cc1ccccc1)NC(=O)c1csc([C@@H](C[C@H](C(C)C)N(C)C(=O)[C@@H](NC(=O)[C@H]2CCCCN2C)C2CCCCC2)OC(C)=O)n1`, for which the GI50 is 0.000306 µM and < 0.0025 µM; the total growth inhibition concentration (TGI) is 0.00159 µM and < 0.0025 µM.

In the case of `NC(=O)OCCn1cc(-c2nc(-c3c[nH]c4ncccc34)cs2)c2ccccc21`, the GI50 is 2.12 µM and the concentration for total growth inhibition (TGI) came out at 5.45 µM.
